This is an account of results in paper PMC13170396 (Journal of controlled release : official journal of the …, 2025).

The test system of data set [1] is HCT116 and UISO-Mel29 cells. The data set can be described thus: Cell proliferation assay. Type of data set: cell-based, human.
For data set [2] the following is noted: cited from earlier work; for clearance / elimination half-life t1/2 / volume of distribution: murine models.
The conditions of data set [3]: cited from earlier work.
Data set [4] deals with p53-positive solid tumors. To be noted: clinical; cited from earlier work.
In data set [5] the test system is HCT116, UISO-Mel29, CCD33Co and fibroblasts. The data set can be described thus: Confocal imaging of cell penetration. It counts as cell-based, human. To be noted: AF-p28 20 μM or AF-Arg8 5 μM, 2 h, 37 °C, confocal microscopy, Fig. 2A.

As usually defined, the clearance is the rate of elimination divided by the concentration. Regarding `CCN(CC)CCCC(C)Nc1ccnc2cc(Cl)ccc12` (stereo not shown) [CQ, chloroquine], the “effect of CQ on the anti-proliferative effect of p28” value in data set [1] (CQ 10 μM with varying concentrations of p28, 24 h, Fig. 6A, B) was “significantly enhanced the effect of p28”. Besides, the “cytotoxic activity in cancer cells” value in data set [1] (Fig. S4) was “dose-dependent cytotoxic activity”. In data set [2], the “primary route of excretion” value is on record as “hepatic clearance”, the clearance was 165 mL/min/kg, the “elimination half-life t1/2” value is given as 46.6 h and the volume of distribution was 667 L/kg.

Regarding `CSCC[C@H](NC(=O)CNC(=O)[C@H](CC(=O)O)NC(=O)[C@@H](NC(=O)[C@@H](NC(=O)[C@@H](NC(=O)CNC(=O)[C@H](CCC(N)=O)NC(=O)[C@H](CCSC)NC(=O)[C@H](CC(=O)O)NC(=O)[C@H](C)NC(=O)[C@H](C)NC(=O)[C@@H](NC(=O)[C@H](CO)NC(=O)[C@@H](N)CC(C)C)[C@@H](C)O)C(C)C)C(C)C)[C@@H](C)O)C(=O)N[C@@H](C)C(=O)N[C@@H](CO)C(=O)NCC(=O)N[C@@H](CC(C)C)C(=O)N[C@@H](CC(=O)O)C(=O)N[C@@H](CCCCN)C(=O)N[C@@H](CC(=O)O)C(=O)N[C@@H](Cc1ccc(O)cc1)C(=O)N[C@@H](CC(C)C)C(=O)N[C@@H](CCCCN)C(=O)N1CCC[C@H]1C(=O)N[C@@H](CC(=O)O)C(=O)N[C@@H](CC(=O)O)C(=O)O` [p28], in data set [3], the water solubility entry is “highly water soluble”. Moreover, in data set [2], the “primary route of excretion” value is recorded as “renal clearance”, the clearance is 36.7 mL/min/kg, the “elimination half-life t1/2” value is listed as 0.06 h and the volume of distribution is 0.29 L/kg. For the same compound, the “adverse effects, toxicity, immunogenicity in humans” value in data set [4] is recorded as “no significant adverse effects, toxicity or immunogenicity”.

Turning to octaarginine [Arg8], the “cell penetration, cancer cells compared to normal cells” value in data set [5] was “penetrated both cancer and normal cells”.
